Results: patent publication US6825199B2, “7-Substituted quinazolin-2,4-diones useful as antibacterial agents” (Warner-Lambert Company, priority 1997, dated 2004)
Converted amounts (≈) assume the structure as drawn. Like-named read-outs stand apart in the source and are kept apart here.

Key:
S. aureus 29213 = assay: Antibacterial assay, standard microtitration (MIC); format: cell-based; conditions: Gram positive; for MIC: Staphylococcus aureus, 29213, read-out: Minimum Inhibitory Concentrations S. aureus 29213
Protocol: (§1) Antibacterial assay: The compounds of the present invention were tested against an assortment of Gram negative and Gram positive organisms using standard microtitration techniques (Cohen, et al., Antimicrob. Agents Chemother., 1985;28:766; Heifetz, et al., Antimicrob. Agents Chemother., 1974;6:124).

E. coli MC4100 = assay: Antibacterial assay, standard microtitration (MIC); format: cell-based; conditions: Gram negative; for MIC: Escherichia coli, MC4100, read-out: Minimum Inhibitory Concentrations E. coli MC4100
Protocol: as §1

B. subtilis RB1 = assay: Antibacterial assay, standard microtitration (MIC); format: cell-based; conditions: Bacillus subtilis, Gram positive, read-out: Minimum Inhibitory Concentrations B. subtilis RB1
Protocol: as §1

S. pyogenes C203 = assay: Antibacterial assay, standard microtitration (MIC); format: cell-based; conditions: Gram positive; for MIC: Streptococcus pyogenes, C203, read-out: Minimum Inhibitory Concentrations S. pyogenes C203
Protocol: as §1

E. coli Tol C = assay: Antibacterial assay, standard microtitration (MIC); format: cell-based; conditions: for MIC: Escherichia coli, read-out: Minimum Inhibitory Concentrations E. coli Tol C
Protocol: as §1

E. coli B90 = assay: Antibacterial assay, standard microtitration (MIC); format: cell-based; conditions: Gram negative; for MIC: Escherichia coli, B90, read-out: Minimum Inhibitory Concentrations E. coli B90
Protocol: as §1

E. coli gyrase = molecular target: T1, E. coli gyrase (Escherichia coli, UniProt P0AES4+P0AES6); assay: DNA gyrase supercoiling inhibition assay; format: biochemical
T1 construct: purchased Lucent, Ltd., Leicester, UK
Protocol: DNA gyrase assay: The effects of test agents on the activity of DNA gyrase was determined by the supercoiling inhibition assay, following reaction conditions recommended by the enzyme supplier (Lucent, Ltd., Leicester, UK), as follows. Reactions were performed in buffer G (35 mM Tris-HCl (pH 7.5), 24 mM KCl, 4 mM MgCl2, 2 mM DTT, 1.8 mM spermidine, 1 mM ATP, 0.1 mg/mL bovine serum albumin). 0.25 μg of relaxed plasmid pBR322 (Lucent, Ltd., Leicester, UK) was reacted with 1 U E. coli gyrase (Lucent, Ltd., Leicester, UK), in the absence or presence of drugs, for 30 minutes at 37° C. Reactions were stopped by the addition of SDS and proteinase K to respective final concentrations of 1% and 0.5 mg/mL. After an additional 30 minutes at 37° C., one-tenth volume of 10×loading buffer (0.3% bromophenol blue, 16% Ficoll, 10 mM Na2HPO4) was added, and reactions were loaded onto agarose gels and electrophoresed as described above for intercalation assays. The concentration of drug inhibiting 50% of the supercoiling activity of DNA gyrase is given as an IC50 and recorded in Table 2.

E. coli Topoisomerase IV = molecular target: T2, E. coli Topoisomerase IV (Escherichia coli, UniProt P0AFI2+P20083); assay: Topoisomerase IV k-DNA decatenation assay; format: biochemical
T2 construct: made in house; host or cells: E. coli overexpressing strains
Protocol: Topoisomerase IV assay: Topoisomerase IV was purified from E. coli overexpressing strains, and the compounds were assayed according to literature conditions (Journal of Biological Chemistry, 1993;268(32):24481). The k-DNA decatenation assay was used. Briefly, reactions were performed in buffer R (40 mM Tris-HCl (pH 7.5),6 mM MgCl2, 10 mM DTT, 100 mM potassium glutamate, 40 μM ATP, 50 μg/mL bovine serum albumin, 10 mM NaCl). Two-tenths microgram of kinetoplast DNA (k-DNA; TopoGen, Columbus, Ohio) was incubated with 5 ng of E. coli Topoisomerase IV in the presence or absence of test compounds for 10 minutes at 37° C. Subsequently, one-tenth volume of 10×gel loading buffer (0.3% bromophenol blue, 16% Ficoll, 10 mM Na2HPO4) was added, and samples were loaded onto horizontal 0.8% agarose gels prepared with TBE buffer and containing 0.05 μg/mL of ethidium bromide. Electrophoresis was at 70 V for 2 to 4 hours. Gels were then examined by exposure to UV light. The concentration of drug inhibiting 50% of the decantenating activity of Topoisomerase IV is given as an IC50 and recorded in Table 2.

[1] = supercoiling of relaxed pBR322, 30 minutes at 37° C., read-out: Gyrase IC50
[2] = k-DNA decatenation, 10 minutes at 37° C., read-out: DNA TopIV IC50

T1 sequence (P0AES4 whole entry, one chain of several): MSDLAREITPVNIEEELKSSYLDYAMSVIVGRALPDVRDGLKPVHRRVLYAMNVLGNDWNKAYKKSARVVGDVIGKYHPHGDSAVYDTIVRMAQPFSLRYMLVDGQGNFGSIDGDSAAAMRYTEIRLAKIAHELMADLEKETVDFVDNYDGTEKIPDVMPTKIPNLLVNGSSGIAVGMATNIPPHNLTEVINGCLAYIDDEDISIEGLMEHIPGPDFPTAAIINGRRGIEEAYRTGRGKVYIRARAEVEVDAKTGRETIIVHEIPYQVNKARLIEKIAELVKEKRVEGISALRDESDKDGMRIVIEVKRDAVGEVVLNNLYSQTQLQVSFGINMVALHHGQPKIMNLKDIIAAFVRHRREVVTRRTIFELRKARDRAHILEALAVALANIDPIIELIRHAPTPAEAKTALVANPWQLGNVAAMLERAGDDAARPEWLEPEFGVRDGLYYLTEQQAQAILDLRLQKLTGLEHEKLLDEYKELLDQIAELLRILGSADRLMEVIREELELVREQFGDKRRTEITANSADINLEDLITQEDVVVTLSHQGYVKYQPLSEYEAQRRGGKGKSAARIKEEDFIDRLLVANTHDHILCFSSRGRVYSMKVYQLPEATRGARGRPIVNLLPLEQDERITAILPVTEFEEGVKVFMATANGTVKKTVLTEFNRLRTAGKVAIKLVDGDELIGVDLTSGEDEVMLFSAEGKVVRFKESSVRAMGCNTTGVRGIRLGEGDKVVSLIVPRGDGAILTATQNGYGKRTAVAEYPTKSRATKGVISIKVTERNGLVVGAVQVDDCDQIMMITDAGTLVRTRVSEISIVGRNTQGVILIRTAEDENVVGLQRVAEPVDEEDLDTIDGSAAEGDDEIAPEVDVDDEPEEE
T2 sequence (P20083 whole entry): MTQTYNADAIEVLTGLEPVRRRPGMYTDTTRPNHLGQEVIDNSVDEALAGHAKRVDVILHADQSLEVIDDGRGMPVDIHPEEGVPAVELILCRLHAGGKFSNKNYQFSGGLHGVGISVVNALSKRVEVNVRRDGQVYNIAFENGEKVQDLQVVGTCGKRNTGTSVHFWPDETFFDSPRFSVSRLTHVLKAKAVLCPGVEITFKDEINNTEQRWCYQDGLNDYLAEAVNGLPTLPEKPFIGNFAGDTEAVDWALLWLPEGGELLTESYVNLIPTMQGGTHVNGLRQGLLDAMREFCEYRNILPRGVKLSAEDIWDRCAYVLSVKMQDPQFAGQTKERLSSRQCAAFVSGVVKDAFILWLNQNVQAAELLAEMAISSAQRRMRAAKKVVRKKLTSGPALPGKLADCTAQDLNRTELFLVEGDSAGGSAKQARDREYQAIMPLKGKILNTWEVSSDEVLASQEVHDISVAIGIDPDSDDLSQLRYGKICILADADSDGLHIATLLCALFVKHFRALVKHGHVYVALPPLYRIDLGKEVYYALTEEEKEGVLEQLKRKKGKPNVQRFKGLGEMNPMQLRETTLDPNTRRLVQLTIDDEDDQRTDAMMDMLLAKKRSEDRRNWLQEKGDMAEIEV
T2 sequence (P0AFI2 whole entry): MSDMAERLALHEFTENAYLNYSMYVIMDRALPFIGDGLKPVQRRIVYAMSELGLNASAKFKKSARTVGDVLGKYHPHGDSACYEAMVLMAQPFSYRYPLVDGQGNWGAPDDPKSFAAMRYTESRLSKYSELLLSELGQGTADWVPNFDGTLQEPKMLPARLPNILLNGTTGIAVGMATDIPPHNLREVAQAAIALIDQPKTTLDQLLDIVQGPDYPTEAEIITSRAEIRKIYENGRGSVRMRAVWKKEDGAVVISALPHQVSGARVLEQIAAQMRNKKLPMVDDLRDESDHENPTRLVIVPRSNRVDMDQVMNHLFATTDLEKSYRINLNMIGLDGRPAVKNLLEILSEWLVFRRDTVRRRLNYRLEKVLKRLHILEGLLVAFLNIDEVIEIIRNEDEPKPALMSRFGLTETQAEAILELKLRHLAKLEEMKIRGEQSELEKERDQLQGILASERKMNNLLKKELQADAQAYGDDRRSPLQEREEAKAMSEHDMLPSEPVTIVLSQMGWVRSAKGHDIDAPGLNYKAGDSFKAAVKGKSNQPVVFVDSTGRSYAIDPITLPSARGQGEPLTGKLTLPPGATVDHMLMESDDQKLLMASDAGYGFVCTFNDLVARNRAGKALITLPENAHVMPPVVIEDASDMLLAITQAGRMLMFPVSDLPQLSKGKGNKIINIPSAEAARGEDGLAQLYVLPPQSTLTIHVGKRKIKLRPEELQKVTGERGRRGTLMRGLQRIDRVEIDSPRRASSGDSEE

Q: With `CCn1c(=O)n(O)c(=O)c2cc(F)c(N3CCC(C)(CN)C3)cc21.Cl` (stereo not drawn) [Example 9, 7-(3-Aminomethyl-3-methyl-pyrrolidin-1-yl)-1-ethyl-6-fluoro-3-hydroxy-1H-quinazoline-2,4-dione, hydrochloride] as the compound, how does the MIC (S. aureus 29213) read?
A: 16 mg/L

Q: What about the MIC (E. coli MC4100) of the same compound?
A: 16 mg/L

Q: What about the MIC (B. subtilis RB1) of the same compound?
A: 16 mg/L

Q: What about the MIC (S. pyogenes C203) of the same compound?
A: 8 mg/L

Q: And the MIC (E. coli Tol C)?
A: 2 mg/L

Q: What about the MIC (E. coli B90) of the same compound?
A: 4 mg/L

Q: What about the IC50 (E. coli gyrase) of the same compound?
A: 15.5 µM

Q: And the IC50 (E. coli Topoisomerase IV)?
A: > 100 µM

Q: For `CCn1c(=O)n(O)c(=O)c2cc(F)c(N3CCN(C)CC3)cc21` [Example 2, 1-Ethyl-6-fluoro-3-hydroxy-7-(4-methyl-piperazin-1-yl)-1H-quinazoline-2,4-dione], which MIC (S. aureus 29213) is on record?
A: > 64 mg/L

Q: What about the MIC (E. coli MC4100) of the same compound?
A: 16 mg/L (≈ 49.6 µM)

Q: And the MIC (B. subtilis RB1)?
A: 16 mg/L (≈ 49.6 µM)

Q: What about the MIC (S. pyogenes C203) of the same compound?
A: > 64 mg/L

Q: What about the MIC (E. coli Tol C) of the same compound?
A: 2 mg/L (≈ 6.2 µM)

Q: What about the MIC (E. coli B90) of the same compound?
A: 4 mg/L (≈ 12.4 µM)

Q: And the IC50 (E. coli gyrase)?
A: 22 µM

Q: And the IC50 (E. coli Topoisomerase IV)?
A: > 100 µM

Q: For `COc1cccc(-n2c(=O)n(O)c(=O)c3cc(F)c(N4CCCC4)cc32)c1` [Example 23, 1-(3-Methoxyphenyl)-6-fluoro-3-hydroxy-7-pyrrolidin-1-yl-1H-quinazoline-2,4-dione], which MIC (S. aureus 29213) is on record?
A: 32 mg/L (≈ 86.2 µM)

Q: What about the MIC (E. coli MC4100) of the same compound?
A: > 64 mg/L

Q: What about the MIC (S. pyogenes C203) of the same compound?
A: 32 mg/L (≈ 86.2 µM)

Q: And the MIC (E. coli Tol C)?
A: 32 mg/L (≈ 86.2 µM)

Q: What about the MIC (E. coli B90) of the same compound?
A: 32 mg/L (≈ 86.2 µM)

Q: What about the IC50 (E. coli gyrase; [1]) of the same compound?
A: 36 µM

Q: What about the IC50 (E. coli Topoisomerase IV; [2]) of the same compound?
A: > 100 µM

Q: What does the source list for `CCn1c(=O)n(O)c(=O)c2cc(F)c(N3CCC(CN)C3)cc21.Cl` (stereo not drawn) [Example 6, 7-(3-Aminomethyl-pyrrolidin-1-yl)-1-ethyl-6-fluoro-3-hydroxy-1H-quinazoline-2,4-dione, hydrochloride]?
A: MIC (S. aureus 29213): 64 mg/L; MIC (E. coli MC4100): 64 mg/L; MIC (B. subtilis RB1): 32 mg/L; MIC (S. pyogenes C203): 16 mg/L; MIC (E. coli Tol C): 8 mg/L; MIC (E. coli B90): 8 mg/L; IC50 (E. coli gyrase): 5.5 µM; IC50 (E. coli Topoisomerase IV): 59 µM

Q: Which results are given for `O=c1c2cc(F)c(N3CCCC3)cc2n(-c2cccc(F)c2)c(=O)n1O` [Example 28, 1-(3-Fluorophenyl)-6-fluoro-3-hydroxy-7-pyrrolidin-1-yl-1H-quinazoline-2,4-dione]?
A: MIC (S. aureus 29213): 32 mg/L (≈ 89.1 µM); MIC (E. coli MC4100): > 64 mg/L; MIC (S. pyogenes C203): 32 mg/L (≈ 89.1 µM); MIC (E. coli Tol C): 2 mg/L (≈ 5.57 µM); MIC (E. coli B90): 2 mg/L (≈ 5.57 µM)

Q: Which MIC (S. aureus 29213) does the source give for `CCn1c(=O)n(O)c(=O)c2cc(F)c(N3CCNCC3)cc21` [Example 7, 1-Ethyl-6-fluoro-3-hydroxy-7-piperazin-1-yl-1H-quinazoline-2,4-dione] here?
A: > 64 mg/L

Q: And the MIC (E. coli MC4100)?
A: 16 mg/L (≈ 51.9 µM)

Q: What about the MIC (B. subtilis RB1) of the same compound?
A: > 64 mg/L

Q: What about the MIC (S. pyogenes C203) of the same compound?
A: > 64 mg/L

Q: And the MIC (E. coli Tol C)?
A: 8 mg/L (≈ 25.9 µM)

Q: And the MIC (E. coli B90)?
A: 4 mg/L (≈ 13 µM)

Q: And the IC50 (E. coli gyrase)?
A: > 100 µM

Q: And the IC50 (E. coli Topoisomerase IV)?
A: 49 µM

Q: How did the MIC (S. aureus 29213) turn out when `NC1CCN(c2cc3c(cc2F)c(=O)n(O)c(=O)n3C2CC2)C1` (stereo not drawn) [Example 39, 7-(3-Amino-pyrrolidin-1-yl)-1-cyclopropyl-6-fluoro-3-hydroxy-1H-quinazoline-2,4-dione] was run?
A: 32 mg/L (≈ 99.9 µM)

Q: What about the MIC (E. coli MC4100) of the same compound?
A: 1 mg/L (≈ 3.12 µM)

Q: What about the MIC (B. subtilis RB1) of the same compound?
A: 2 mg/L (≈ 6.24 µM)

Q: What about the MIC (S. pyogenes C203) of the same compound?
A: 4 mg/L (≈ 12.5 µM)

Q: What about the MIC (E. coli Tol C) of the same compound?
A: 0.25 mg/L (≈ 0.78 µM)

Q: And the MIC (E. coli B90)?
A: 0.3 mg/L (≈ 0.937 µM)

Q: What about the IC50 (E. coli gyrase; [1]) of the same compound?
A: 2.4 µM

Q: And the IC50 (E. coli Topoisomerase IV; [2])?
A: 9 µM

Q: Which results are given for `O=c1c2cc(F)c(N3CCCC3)nc2n(C2CC2)c(=O)n1O` [Example 32, 1-Cyclopropyl-6-fluoro-3-hydroxy-7-pyrrolidin-1-yl-1H-pyrido[2,3-d]pyrimidine-2,4-dione]?
A: MIC (S. aureus 29213): 8 mg/L (≈ 26.1 µM); MIC (E. coli MC4100): > 64 mg/L; MIC (S. pyogenes C203): 64 mg/L (≈ 209 µM); MIC (E. coli Tol C): 0.5 mg/L (≈ 1.63 µM); MIC (E. coli B90): 0.5 mg/L (≈ 1.63 µM); IC50 (E. coli gyrase; [1]): 6.4 µM; IC50 (E. coli Topoisomerase IV; [2]): > 100 µM

Q: What does the source list for `N[C@@H]1[C@H]2CN(c3cc4c(cc3F)c(=O)n(O)c(=O)n4C3CC3)C[C@@H]12.O=C(O)C(F)(F)F` [Example 42, (1α, 5α, 6α)7-(6-Amino-3-aza-bicyclo[3.1.0]hex-3-yl)-1-cyclopropyl-6-fluoro-3-hydroxy-1H-quinazoline-2,4-dione, trifluoroacetate]?
A: Minimum Inhibitory Concentrations S. aureus 29213 (S. aureus 29213): 4.0 µg/mL; Minimum Inhibitory Concentrations E. coli MC4100 (E. coli MC4100): 1.0 µg/mL; Minimum Inhibitory Concentrations S. pyogenes C203 (S. pyogenes C203): 2.0 µg/mL; Minimum Inhibitory Concentrations E. coli Tol C (E. coli Tol C; Gram negative): 0.25 µg/mL; Minimum Inhibitory Concentrations E. coli B90 (E. coli B90): 0.25 µg/mL; IC50 (E. coli gyrase; [1]): 0.76 µM; IC50 (E. coli Topoisomerase IV; [2]): 28 µM
